{"source": "patent US10118943B2", "about": "“Compounds and methods for inhibiting cell death” (Ramot at Tel-Aviv University Ltd., priority 2012, dated 2018)", "key": {"[1]": {"system": "primary cortical neurons", "experiment": "PSD-95 density in primary cortical neuron culture", "type": "cell-based, rat", "conditions": "neurons treated for 2 hrs", "protocol": "Methods: 1. Primary cultures of neurons were prepared as follows. Newborn rats were sacrificed on postnatal day 1. Cerebral cortex tissue was then dissected and dissociated individually from each pup with the Papain Dissociation System (PDS; Worthington Biochemical Corporation) according to the manufacturer's instructions. 2. Cells were fixed with ice cold methanol, blocked with 2% bovine serum albumin (BSA) and 5% normal goat serum in Tris buffered saline containing tween 20 (TBS-T; 20 mM Tris pH 7.5, 136.8 mM NaCl, and 0.05% v/v Tween 20), and incubated with primary antibody followed by the appropriate secondary antibody. 3. Primary antibodies that were used include: monoclonal anti PSD-95 (ab-2723, Abcam), monoclonal anti Tyr-α-tubulin antibody (YL1/2) (VMA1864, Abcys, Paris, France), polyclonal anti Glu-α-tubulin antibody (L4) (AbC0101, Abcys, Paris, France), DyLight 488-labeled secondary goat anti-mouse IgG, DyLight 633-labeled secondary goat anti-rabbit IgG (KPL, Gaithersburg, Md., USA), Cy3-conjugated secondary goat anti-Rat IgG, (Jackson ImmunoResearch). 4. Images were collected with a Leica SP5 confocal laser scanning microscope (Mannheim, Germany) with 63× oil immersion optics, laser lines at 488, 561, 633 nm. Identical confocal laser scanning microscopy (CLSM) parameters (e.g., scanning line, laser light, gain, and offset etc.) were used for control and NAP treated cells.\nFor instance, a PSD-95 expression assay using primary cortical neuron cultures established from suitable animals may be performed to confirm a compound's activity in promoting cell plasticity. More specifically, primary cultures of neurons are prepared by first taking cerebral cortex tissue from newborn rats on postnatal day 1. The cerebral cortex tissue is then dissected and dissociated individually from each animal. Cells are fixed with ice cold methanol, blocked (e.g., with bovine serum albumin (BSA) and normal goat serum), and incubated with primary antibody (e.g., monoclonal antibody against PSD-95), optionally followed by the appropriate secondary antibody for imaging purposes. Images of primary neuronal cultures are taken and compared between cultures with or without being exposed to a test compound. An increased PSD-95 expression is indicative of the test compound being capable of promoting or protecting cell plasticity, especially neuronal plasticity.\nCerebral cortex tissue from newborn rats was dissected and dissociated individually from each pup with the Papain Dissociation System (PDS), (Worthington Biochemical Corporation) according to the manufacturer's instructions. Cortical neurons were maintained in Neurobasal medium (NB), (Gibco) supplemented with NeuroCult B27-SM1 ([…]), 1% Glutamax (Gibco), and grown on poly-D-lysine-coated cell culture glass cover slips.\nImages were collected with a Leica SP5 confocal laser scanning microscope (Mannheim, Germany) with 63× oil immersion optics, laser lines at 488, 561, 633 nm or with LSM 510 META (Zeiss, Jena, Germany) confocal laser scanning microscope with 63× oil immersion optics, laser lines at 488, 568, 633 nm. When comparing fluorescence intensities, identical CLSM parameters (e.g., scanning line, laser light, gain, and offset etc.) were used. All of the fluorescent signals acquired were above the autofluorescent background as measured from a control slide stained with secondary antibody without a primary antibody. To compare the relative levels of protein expression, the average integrated density (AID) image analysis procedure was used for cell immunostains. In brief, integrated density is defined by the sum of the values of the pixels in the selected region of interest (ROI). This is equivalent to the product of Area and Mean Gray Value. AID for the positive stained area was determined by measuring the fluorescent intensity of the ROI, which is above the positive cut-off intensity. […]"}, "[2]": {"target": "T1, full-length human EB3 recombinant protein (Homo sapiens, UniProt Q9UPY8)", "T1 construct": "Full-length human EB3 was subcloned into pEX-N-His vector; 6xHis (N, cleaved yes); made in house; host or cells: E. coli BL21(DE3)", "T1 sequence (Q9UPY8 whole entry)": "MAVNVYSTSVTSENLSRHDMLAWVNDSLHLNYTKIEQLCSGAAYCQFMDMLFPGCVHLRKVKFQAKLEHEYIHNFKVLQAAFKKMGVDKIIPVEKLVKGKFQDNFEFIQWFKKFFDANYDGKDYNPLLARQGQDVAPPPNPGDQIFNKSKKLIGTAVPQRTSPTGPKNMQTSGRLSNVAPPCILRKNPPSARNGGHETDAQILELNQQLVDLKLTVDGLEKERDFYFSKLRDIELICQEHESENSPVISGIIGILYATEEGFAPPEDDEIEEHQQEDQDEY", "experiment": "Sulfolink coupling gel-NAP affinity chromatography with recombinant EB3, western analysis", "type": "binding", "conditions": "2 mg soluble peptide incubated with recombinant EB3 and column beads", "protocol": "Column load, flow through, wash and elution fractions were further analyzed by polyacrylamide gel electrophoresis, followed by western analysis with EB3 antibodies. […] Column chromatography, elution and western blots were performed as above. The extract fractions (flow, wash and elution) were separated by electrophoresis followed by protein detection (FIG. 6)."}, "[3]": {"system": "ADNP+/− mice", "experiment": "Object recognition test in ADNP-deficient mice", "type": "in vivo, mouse", "conditions": "intranasal, twice a day, 1 month, ADNP+/− male mice", "text": "All procedures involving animals were approved by the Animal Care and Use Committee of Tel Aviv University and the National Institutes of Health (Bethesda, Md.). ADNP heterozygous mice, a model for cognitive impairments (Vulih-Shultzman et al., 2007, J. Pharmacol. Exp. Ther. 323:438-449), were housed in a 12-h light/12-h dark cycle facility, and free access to rodent chow and water was available.\nSKIP (SEQ ID NO:6) treatment included daily intranasal administrations over a 1 month period to 5-month-old male mice (2 μg/5 μl/mouse/day). For intranasal administration, the peptide was dissolved in a vehicle solution, in which each milliliter included 7.5 mg of NaCl, 1.7 mg of citric acid monohydrate, 3 mg of disodium phosphate dihydrate, and 0.2 mg of benzalkonium chloride solution (50%). SKIP (SEQ ID NO:6) or vehicle solution (DD) was administered to mice hand-held in a semisupine position with nostrils facing the investigator. A pipette tip was used to administer 5 μl/each nostril. The mouse was handheld until the solution was totally absorbed (˜10 s). Nasal SKIP (SEQ ID NO:6) application was performed daily, twice a day, for 1 month (5 days a week). After 1 month, SKIP (SEQ ID NO:6) was applied 2 h before the behavioral tests (described below).\nThe test includes 2 consecutive days of habituation (five minutes per day) and the experimental day which consists of the three phases. The test was conducted two hours after the daily intranasal SKIP (SEQ ID NO:6). During the first phase (Phase 1, habituation phase), the open field apparatus (arena of 50×50 cm) contained two identical objects (samples) and a mouse was placed in the apparatus facing the wall and allowed to freely explore the objects. At the end of the 5-min session of Phase 1, the mouse was put back into its home cage for 3 hours. […] The time spent sniffing/touching each object was measured. The data was analyzed using the following formula: D1=b−a, when ‘a’ designated the time of exploration of the familiar object and ‘b’ designated the time of exploration of the novel object. […]"}}, "note": "Entries after “also recorded” stand apart in the source; their conditions may differ.", "data": [{"sequence": "NAPVSKIPQ (synthetic novel peptide core sequence SKIP derived from hybrid microtubule end-binding protein 3 (EB3)- binding microtubule plus-end tracking proteins (+TIPs) and activity-dependent neurotrophic factor (ADNF) active core site (NAP))", "values": [{"measurement": "derivative peptides effect on PSD-95 density vs vehicle controls (FIG. 10c)", "setting": "[1]", "result": "paralleled to NAPVSIPQ activity; also recorded: significantly increased"}, {"measurement": "competition for EB3 binding to column-bound NAP", "setting": "[2]", "result": "no binding of EB3 to the column bound NAP"}, {"measurement": "object recognition, Phase 2 short retention (discrimination index D1)", "setting": "[3]", "result": "improved the memory"}]}]}
